Data set [1] relates to tubulin. In words: Inhibition of tubulin polymerization (assembly assay). In kind it is biochemical. To be noted: tubulin at 10 μM, read-out: Tubulin IC50 ± SD. Here is the method:
The assembly reaction mixtures contained 0.8 M monosodium glutamate (pH 6.6 with HCl in a 2 M stock solution), 10 μM tubulin, 4% (v/v) DMSO, and varying concentrations of the drug. Following a 15 min preincubation at 30 °C, samples were chilled on ice, GTP to 0.4 mM was added, and turbidity development was followed at 350 nm in a temperature-controlled recording spectrophotometer for 20 min at 30 °C. The extent of reaction was measured. Full experimental details were previously described.[63] For the colchicine binding assay, reaction mixtures contained 1.0 μM tubulin, 5.0 μM [^3H]colchicine, and 5.0 or 1.0 μM inhibitor and were incubated for 10 min at 37 °C. Complete details were described previously.[64]

The test system of data set [2] is PARP cleavage in OVCAR-3 cells. In words: PARP cleavage by western blot in OVCAR-3 cells. In kind it is cell-based, human. The note with it: immunoblotting. Here is the method: Western blotting was performed as previously described[68] by lysing cells in denaturing buffer sodium dodecyl sulfate (SDS)–urea. Extracts were sonicated, their protein quantified, and aliquots were loaded into an SDS–polyacrylamide gel. After electrophoresis, the proteins in the gel were transferred onto a nitrocellulose membrane (cat. no. NBA085C001EA, PerkinElmer), which then was blocked with 5% milk in TBS-T (Tris HCl with 0.1% Tween 20) and incubated with primary antibodies overnight: PARP antibody diluted 1:1000 (cat. no. 9542S CST) and actin antibody diluted 1:10,000 (cat. no. A5441, Sigma Aldrich). The next day, the membrane was extensively washed with TBS-T and incubated with horse radish peroxidase (HRP)-conjugated secondary antibodies diluted in the 5% milk solution. Detection of the HRP signal was performed using ECL (cat. no. K-12045-D50, Advansta).
(In general: A western blot detects proteins with antibodies after separation by electrophoresis.)

A short description of data set [3]: Metabolic stability in mouse liver microsomes. In kind it is in vitro ADME. Here is the method: Mouse (Sigma Aldrich, CD-1 male, pooled) and human microsomes (Sigma Aldrich, human, pooled) at 0.5 mg/mL were preincubated with the test compound 15 dissolved in DMSO at 1 μM in phosphate buffer 50 mM, pH 7.4, and 3 mM MgCl2 for 10 min at 37 °C. The reaction was then started by adding the cofactor mixture solution (NADP, glucose-6-phosphate, glucose-6-phosphate dehydrogenase in 2% NaHCO3). Samples were taken at 0, 10, 30, 45, and 60 min and added to acetonitrile to stop the reaction. Samples were then centrifuged, and the supernatant was analyzed by LC–MS/MS to quantify the amount of the compound. A control sample without the cofactor was always added to check the chemical stability of the test compound. […] A fixed concentration of verapamil was added in every sample as an internal standard for LC–MS/MS analyses. The percentage of the area of the test compound remaining at the various incubation times was calculated with respect to the area of the compound at time 0 min.
The rate constant, k (min^–1), derived for the exponential decay equation (peak area/IS vs time), was used to calculate the rate of Cli.
Samples were analyzed under the following conditions: UPLC Waters coupled with an API 3200 triple-quadrupole (ABSciex); eluents, (phase A) 95% water, 5% acetonitrile + 0.1% HCOOH, (phase B) 5% water, 95% acetonitrile + 0.1% HCOOH; flow rate, 0.3 mL/min; column, Gemini-Nx 5 μm C18 110A (50 × 2.00 mm) at 35 °C; injection volume, 10 μL. Source conditions ESI positive: T 400 °C, Gas 1 30, Gas 2 35, CUR 30, IS 5500, CAD 5.
In general terms: Liver microsomes are vesicles of endoplasmic reticulum, rich in cytochrome P450 enzymes.

Molecules are shown by their SMILES. Several values for one entry are separate records, joined by “and”; a condition that tells them apart may be missing. Equal values may be shown once. Where only a bound is given, the exact number is not on record here.

The source of these data is publication PMC9743090, “Induction of Ferroptosis in Glioblastoma and Ovarian Cancers by a New Pyrrole Tubulin Assembly Inhibitor” (Journal of Medicinal Chemistry, 2022).

One may read the IC50 as the concentration that gives 50% inhibition.

On to `COc1cc(C(=O)c2cn(-c3ncccn3)cc2-c2ccco2)cc(OC)c1OC` [Compound 15, (4-(Furan-2-yl)-1-(pyrimidyl-2-yl)-1H-pyrrol-3-yl)(3,4,5-trimethoxyphenyl)methanone], for which, in data set [1], the IC50 is 520 ± 70 nM. For the same compound, the “concentration from which cleaved PARP increases” value in data set [2] was not below 5 nM. The “Cli ± SD” value in data set [3] (MLM 0.5 mg/mL, 1 μM, n = 2) is 461 μL/min/mg protein and 461.1 ± 45.5 μL/min/mg protein. Besides, the half-life at 1 h, 1 µM in data set [3] (male, CD-1, mouse, liver microsomes, pH 7.4, MLM 0.5 mg/mL, 1 μM, n = 2, read-out: t1/2 ± SD) came out at 3 ± 0.3 min. Also, the microsomal CLint at 1 μM in data set [3] (male, CD-1, pH 7.4, mouse liver microsomes, read-out: intrinsic clearance classification) was more than 66 µL/min/mg.
